{"source": "patent US20150105252A1", "about": "“SUBSTITUTED PYRAZOLES AS HERBICIDES” (E I DU PONT DE NEMOURS AND COMPANY, priority 2013, published 2015)", "experiment_in_all_cases": "Test C postemergence", "key": {"[1]": {"tested_on": "blackgrass", "assay_type": "in vivo, Alopecurus myosuroides", "how_it_was_run": "(§1)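 Visual rating, 0–100 scale (0 no effect, 100 complete control), vs untreated controls after 13–15 d greenhouse. Pre: seeds in loam/sand, treated at sowing. Post: plants in peat-based mix, 1- to 4-leaf (2–18 cm). Solvent + surfactant formulation, non-phytotoxic.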"}, "[2]": {"tested_on": "ryegrass, Italian", "assay_type": "in vivo, Lolium multiflorum", "settings": "postemergence", "text": "(§2) Seeds of plant species selected from blackgrass (Alopecurus myosuroides), ryegrass, Italian (Italian ryegrass, Lolium multiflorum), wheat (winter wheat, Triticum aestivum), galium (catchweed bedstraw, Galium aparine), corn (Zea mays), crabgrass, large (large crabgrass, Digitaria sanguinalis), foxtail, giant (giant foxtail, Setaria faberii), johnsongrass (Sorghum halepense), lambsquarters (Chenopodium album), morningglory (Ipomoea coccinea), nutsedge, yellow (yellow nutsedge, Cyperus esculentus), pigweed (redroot pigweed, Amaranthus retroflexus), ragweed (common ragweed, Ambrosia elation), soybean (Glycine max), barnyardgrass (Echinochloa crus-galli), oilseed rape (Brassica napus), waterhemp (common waterhemp, Amaranthus rudis), oat, wild (wild oat, Avena fatua), kochia (Kochia scoparia), Surinam grass (Brachiaria decumbens), foxtail, green (green foxtail, Setaria viridis), goosegrass (Eleusine indica), bromegrass, downy (downy bromegrass, Bromus tectorum), nightshade (eastern black nightshade, Solanum ptycanthum), cocklebur (common cocklebur, Xanthium strumarium), cupgrass, woolly (woolly cupgrass, Eriochloa villosa), bermudagrass (Cynodon dactylon), sunflower, (common oilseed sunflower, Helianthus annuus), Russian thistle (Salsola kali), and velvetleaf (Abutilon theophrasti) were planted into a blend of loam soil and sand and treated preemergence with test chemicals formulated in a non-phytotoxic solvent mixture which included a surfactant.\n(§3) At the same time, plants selected from these crop and weed species and also chickweed (common chickweed, Stellaria media), canarygrass (littleseed canarygrass, Phalaris minor), and deadnettle (henbit deadnettle, Lamium amplexicaule), were planted in pots containing Redi-Earth® planting medium (Scotts Company, 14111 Scottslawn Road, Marysville, Ohio 43041) comprising spaghnum peat moss, vermiculite, wetting agent and starter nutrients and treated with postemergence applications of test chemicals formulated in the same manner. Plants ranged in height from 2 to 18 cm (1- to 4-leaf stage) for postemergence treatments. Treated plants and controls were maintained in a greenhouse for 13 to 15 days, after which time all species were compared to controls and visually evaluated. Plant response ratings, summarized in Table C, are based on a scale of 0 to 100 where 0 is no effect and 100 is complete control. A dash (-) response means no test result."}, "[3]": {"tested_on": "wheat", "assay_type": "in vivo, Triticum aestivum", "settings": "postemergence, 250 g ai/ha; scale 0 to 100 (0 no effect, 100 complete control)", "how_it_was_run": "as §1"}, "[4]": {"tested_on": "galium", "assay_type": "in vivo, Galium aparine", "how_it_was_run": "as §1"}, "[5]": {"tested_on": "corn", "assay_type": "in vivo, Zea mays", "how_it_was_run": "as §1"}, "[6]": {"tested_on": "foxtail, giant", "assay_type": "in vivo, Setaria faberii", "how_it_was_run": "as §1"}, "[7]": {"tested_on": "johnsongrass", "assay_type": "in vivo, Sorghum halepense", "text": "as §2, §3"}, "[8]": {"tested_on": "lambsquarters", "assay_type": "in vivo, Chenopodium album", "how_it_was_run": "as §1"}, "[9]": {"tested_on": "morningglory", "assay_type": "in vivo, Ipomoea coccinea", "text": "as §2, §3"}, "[10]": {"tested_on": "nutsedge, yellow", "assay_type": "in vivo, Cyperus esculentus", "how_it_was_run": "as §1"}, "[11]": {"tested_on": "pigweed", "assay_type": "in vivo, Amaranthus retroflexus", "settings": "postemergence", "how_it_was_run": "as §1"}, "[12]": {"tested_on": "soybean", "assay_type": "in vivo, Glycine max", "settings": "postemergence", "how_it_was_run": "as §1"}, "[13]": {"tested_on": "oilseed rape", "assay_type": "in vivo, Brassica napus", "settings": "postemergence", "text": "as §2, §3"}, "[14]": {"tested_on": "waterhemp", "assay_type": "in vivo, Amaranthus rudis", "settings": "postemergence, 250 g ai/ha; scale 0 to 100 (0 no effect, 100 complete control)", "text": "as §2, §3"}, "[15]": {"tested_on": "kochia", "assay_type": "in vivo, Kochia scoparia", "text": "as §2, §3"}, "[16]": {"tested_on": "velvetleaf", "assay_type": "in vivo, Abutilon theophrasti", "settings": "postemergence, 250 g ai/ha; scale 0 to 100 (0 no effect, 100 complete control)", "how_it_was_run": "as §1"}, "[17]": {"tested_on": "chickweed", "assay_type": "in vivo, Stellaria media", "text": "as §2, §3"}, "[18]": {"settings": "Postemergence, 31 g ai/ha, visually evaluated after 13 to 15 days"}, "[19]": {"settings": "postemergence, 62 g ai/ha, scale 0 to 100"}, "[20]": {"settings": "postemergence, 250 g ai/ha, scale 0 to 100 (0 no effect, 100 complete control)"}, "[21]": {"settings": "postemergence, 125 g ai/ha, scale 0 to 100, 0 no effect, 100 complete control"}, "[22]": {"settings": "250 g ai/ha, scale 0 to 100 (0 no effect, 100 complete control)"}, "[23]": {"settings": "125 g ai/ha, scale 0 to 100, 0 no effect, 100 complete control"}}, "data": [{"compound": "CCNC(=O)c1cc(CC)n(Cc2ccnc(C(F)(F)F)c2)n1", "note": "[Compound 196]", "values": [{"measurement": "Plant response rating (scale of 0 to 100 where 0 is no effect and 100 is complete control), Blackgrass", "setting": "[1]; [18]", "result": 20}, {"measurement": "Blackgrass plant response rating", "setting": "[1]; [19]", "result": 15}, {"measurement": "Plant response rating, Blackgrass", "setting": "[1]; [20]", "result": 15}, {"measurement": "Plant response rating, Blackgrass", "setting": "[1]; [21]", "result": 5}, {"measurement": "Plant response rating, Ryegrass, Italian", "setting": "[2]; [22]", "result": 5}, {"measurement": "Plant response rating, Ryegrass, Italian", "setting": "[2]; [23]", "result": 5}, {"measurement": "Plant response rating, Wheat", "setting": "[3]", "result": 5}, {"measurement": "Plant response rating (scale of 0 to 100 where 0 is no effect and 100 is complete control), Galium", "setting": "[4]; [18]", "result": 40}, {"measurement": "Galium plant response rating", "setting": "[4]; [19]", "result": 55}, {"measurement": "Plant response rating, Galium", "setting": "[4]; [20]", "result": 90}, {"measurement": "Plant response rating, Galium", "setting": "[4]; [21]", "result": 80}, {"measurement": "Plant response rating (scale of 0 to 100 where 0 is no effect and 100 is complete control), Corn", "setting": "[5]; [18]", "result": 5}, {"measurement": "Corn plant response rating", "setting": "[5]; [19]", "result": 5}, {"measurement": "Plant response rating, Corn", "setting": "[5]; [20]", "result": 15}, {"measurement": "Plant response rating, Corn", "setting": "[5]; [21]", "result": 5}, {"measurement": "Plant response rating (scale of 0 to 100 where 0 is no effect and 100 is complete control), Foxtail, Giant", "setting": "[6]; [18]", "result": 5}, {"measurement": "Foxtail, Giant plant response rating", "setting": "[6]; [19]", "result": 25}, {"measurement": "Plant response rating, Foxtail, Giant", "setting": "[6]; [20]", "result": 20}, {"measurement": "Plant response rating, Foxtail, Giant", "setting": "[6]; [21]", "result": 20}, {"measurement": "Plant response rating (scale of 0 to 100 where 0 is no effect and 100 is complete control), Johnsongrass", "setting": "[7]; [18]", "result": 0}, {"measurement": "Johnsongrass plant response rating", "setting": "[7]; [19]", "result": 5}, {"measurement": "Plant response rating, Johnsongrass", "setting": "[7]; [20]", "result": 15}, {"measurement": "Plant response rating, Johnsongrass", "setting": "[7]; [21]", "result": 10}, {"measurement": "Plant response rating (scale of 0 to 100 where 0 is no effect and 100 is complete control), Lambsquarters", "setting": "[8]; [18]", "result": 60}, {"measurement": "Lambsquarters plant response rating", "setting": "[8]; [19]", "result": 65}, {"measurement": "Plant response rating, Lambsquarters", "setting": "[8]; [20]", "result": 75}, {"measurement": "Plant response rating, Lambsquarters", "setting": "[8]; [21]", "result": 75}, {"measurement": "Plant response rating (scale of 0 to 100 where 0 is no effect and 100 is complete control), Morningglory", "setting": "[9]; [18]", "result": 40}, {"measurement": "Morningglory plant response rating", "setting": "[9]; [19]", "result": 80}, {"measurement": "Plant response rating, Morningglory", "setting": "[9]; [20]", "result": 75}, {"measurement": "Plant response rating, Morningglory", "setting": "[9]; [21]", "result": 55}, {"measurement": "Plant response rating (scale of 0 to 100 where 0 is no effect and 100 is complete control), Nutsedge, Yellow", "setting": "[10]; [18]", "result": 5}, {"measurement": "Nutsedge, Yellow plant response rating", "setting": "[10]; [19]", "result": 0}, {"measurement": "Plant response rating, Nutsedge, Yellow", "setting": "[10]; [20]", "result": 10}, {"measurement": "Plant response rating, Nutsedge, Yellow", "setting": "[10]; [21]", "result": 5}, {"measurement": "Pigweed plant response rating", "setting": "[11]; 62 g ai/ha, scale 0 to 100", "result": 60}, {"measurement": "Plant response rating, Pigweed", "setting": "[11]; [22]", "result": 70}, {"measurement": "Plant response rating, Pigweed", "setting": "[11]; [23]", "result": 70}, {"measurement": "Plant response rating, Soybean", "setting": "[12]; [22]", "result": 95}, {"measurement": "Soybean plant response rating", "setting": "[12]; [23]", "result": 80}, {"measurement": "Oilseed Rape plant response rating", "setting": "[13]; 62 g ai/ha, scale 0 to 100", "result": 5}, {"measurement": "Plant response rating, Oilseed Rape", "setting": "[13]; [22]", "result": 70}, {"measurement": "Plant response rating, Oilseed Rape", "setting": "[13]; [23]", "result": 10}, {"measurement": "Plant response rating, Waterhemp", "setting": "[14]", "result": 70}, {"measurement": "Plant response rating (scale of 0 to 100 where 0 is no effect and 100 is complete control), Kochia", "setting": "[15]; [18]", "result": 80}, {"measurement": "Kochia plant response rating", "setting": "[15]; [19]", "result": 85}, {"measurement": "Plant response rating, Kochia", "setting": "[15]; [20]", "result": 90}, {"measurement": "Plant response rating, Kochia", "setting": "[15]; [21]", "result": 90}, {"measurement": "Plant response rating, Velvetleaf", "setting": "[16]", "result": 50}, {"measurement": "Plant response rating (scale of 0 to 100 where 0 is no effect and 100 is complete control), Chickweed", "setting": "[17]; [18]", "result": 50}, {"measurement": "Chickweed plant response rating", "setting": "[17]; [19]", "result": 60}, {"measurement": "Plant response rating, Chickweed", "setting": "[17]; [20]", "result": 80}, {"measurement": "Plant response rating, Chickweed", "setting": "[17]; [21]", "result": 80}]}]}
